Read-outs that look alike come from different tables or passages of the source.
Tested on: epithelial cell line KB (DSMZ ACC 136)
Assay: MTT assay of proliferation under varied riboflavin content and light exposure
Assay type: cell-based, human
Excerpt: To address this question, three media, a) the RPMI 1640 without riboflavin and phenol red that is used in the method according to the invention and was manufactured according to our specifications by Biochrom, as well as two different RPMI 1640 charges purchased from Invitrogen which were each containing 532 nmol/L riboflavin, b) a phenol red-free (Gibco 11835), and c) a conventional RPMI 1640 (Gibco 21875) with 13.284 µmol/L phenol red. All media were supplemented with 2 mmol/L L-alanyl-1-glutamine as stabilized glutamine source (Biochrom K0302 Lot 0755 S) and the same amount of 10% (v/v) of heat-inactivated fetal calf serum (FCS) that was purchased from Invitrogen (Lot 41Q7554K) with a yield of 198 nmol/L riboflavin. […] These medium concentrations define the riboflavin concentrations in controls (see below).
In addition to the influences exerted by the different types of media alone, the riboflavin-dependent impact on the outcome of the docetaxel treatment was investigated. For this purpose 100 µl/well of docetaxel dilutions containing threefold the concentration indicated were added into the wells of microwell plates. The following seven docetaxel concentrations were tested: 19.38, 38.75, 77.5, 155, 310, 620, and 1,240 pmol/L.
To examine photoactivation-dependent riboflavin-mediated effects disturbing the outcome of ex-vivo chemoresponse-evaluation by conventional cell culture medium, and in particular in the absence of flavin-protecting experimental conditions, varying amounts of riboflavin were added. A stock solution of 200 µM (-)-riboflavin (CAS 83-68-5, Sigma R9504, FW=376.37 g/mol, purity >99%, cell culture tested) in phosphate buffered saline was diluted to adjust in each case the highest final concentration in culture (this means: after completion of the assay by addition of the other two components to the final assay volume of 300 µL) to exactly 10 µmol/L. Serial log10-dilutions were made from this concentration in each corresponding medium. These gave final concentrations in cell culture of 10.000, 1.018, 0.12, and 0.03 µmol/L in the case of medium a) (the medium according to the method of the invention), and concentrations of 10.000, 1.449, 0.594, and 0.508 µmol/L using media b) and c).
In general, each combination of riboflavin and docetaxel were tested in duplicate, and controls without additional riboflavin in quadruplicate for each experimental setting in the same 96-well plate. The experimental conditions were as follows: For each of the used media, two different plates were prepared simultaneously and either handled completely under flavin-protecting conditions (illumination only by sodium discharge lamps with an emission wavelength of 589 nm [i]), or in the same bench (Thermo MSC 12) with the installed light inside their working chamber switched on. The dilution of docetaxel and those of riboflavin in the particular medium were prepared for all four plates of each medium type prior to the other working steps under flavin-protecting conditions. Thus the administrations of these dilutions took about 20 min either under flavin-protecting conditions or illuminated conditions. After completed preparation of the plates that thereafter contained 200 µL of both diluted compounds, the plates were incubated 2 h in the incubator to allow for adjustment of the appropriate pH.
In between the stock culture of KB was harvested by trypsination of a 3-days stock culture (exponential growth phase). Stock cultures of KB cells always were grown without any antibiotic or antimycotic in phenol red- and riboflavin-free RPMI 1640 supplemented with 10% (v/v) FCS and were adapted to this medium for more than five passages. They were always handled at room temperature or warmer and were never exposed to light other than the light of a sodium discharge lamp with an emission wavelength of 589 nm for at least five passages. […]

[1] = medium a) (plate 01), 10 µmol/L riboflavin

IC50 (Homo sapiens, Epithelial cell, 0.5 h, Plate No. 11; Riboflavin 508 nmol/L; medium c) conventional RPMI 1640 with phenol red, bench lighting <30 min, read-out: IC50 for docetaxel with reference to control with same riboflavin content): 284 pM | IC50 (Homo sapiens, Epithelial cell, 0.5 h, Plate No. 11; Riboflavin 594 nmol/L; medium c) conventional RPMI 1640 with phenol red, bench lighting <30 min, read-out: IC50 for docetaxel with reference to control with same riboflavin content): 233 pM | IC50 (Homo sapiens, Epithelial cell, 0.5 h, Plate No. 11; Riboflavin 1449 nmol/L; medium c) conventional RPMI 1640 with phenol red, bench lighting <30 min, read-out: IC50 for docetaxel with reference to control with same riboflavin content): 274 pM | IC50 (Homo sapiens, Epithelial cell, 0.5 h, Plate No. 11; Riboflavin 10000 nmol/L; medium c) conventional RPMI 1640 with phenol red, bench lighting <30 min, read-out: IC50 for docetaxel with reference to control with same riboflavin content): 247 pM | IC50 (Homo sapiens, Epithelial cell, 0.5 h, Plate No. 12; Riboflavin 499 nmol/L; medium c) conventional RPMI 1640 with phenol red, bench lighting <30 min, daylight 30 min, read-out: IC50 for docetaxel with reference to control with same riboflavin content): 339 pM | IC50 (Homo sapiens, Epithelial cell, 0.5 h, Plate No. 12; Riboflavin 508 nmol/L; medium c) conventional RPMI 1640 with phenol red, bench lighting <30 min, daylight 30 min, read-out: IC50 for docetaxel with reference to control with same riboflavin content): 239 pM | IC50 (Homo sapiens, Epithelial cell, 0.5 h, Plate No. 12; Riboflavin 594 nmol/L; medium c) conventional RPMI 1640 with phenol red, bench lighting <30 min, daylight 30 min, read-out: IC50 for docetaxel with reference to control with same riboflavin content): 200 pM | IC50 (Homo sapiens, Epithelial cell, 0.5 h, Plate No. 12; Riboflavin 1449 nmol/L; medium c) conventional RPMI 1640 with phenol red, bench lighting <30 min, daylight 30 min, read-out: IC50 for docetaxel with reference to control with same riboflavin content): 153 pM | IC50 (Homo sapiens, Epithelial cell, Plate No. 01; Riboflavin 20 nmol/L; medium a) RPMI 1640 without riboflavin and phenol red, flavin-protecting conditions, read-out: IC50 for docetaxel with reference to control with same riboflavin content): 209 pM | IC50 (Homo sapiens, Epithelial cell, Plate No. 01; Riboflavin 30 nmol/L; medium a) RPMI 1640 without riboflavin and phenol red, flavin-protecting conditions, read-out: IC50 for docetaxel with reference to control with same riboflavin content): 206 pM | IC50 (Homo sapiens, Epithelial cell, Plate No. 01; Riboflavin 120 nmol/L; medium a) RPMI 1640 without riboflavin and phenol red, flavin-protecting conditions, read-out: IC50 for docetaxel with reference to control with same riboflavin content): 230 pM | IC50 (Homo sapiens, Epithelial cell, Plate No. 01; Riboflavin 1018 nmol/L; medium a) RPMI 1640 without riboflavin and phenol red, flavin-protecting conditions, read-out: IC50 for docetaxel with reference to control with same riboflavin content): 222 pM | IC50 (Homo sapiens, Epithelial cell, Plate No. 01; Riboflavin 10000 nmol/L; medium a) RPMI 1640 without riboflavin and phenol red, flavin-protecting conditions, read-out: IC50 for docetaxel with reference to control with same riboflavin content): 257 pM | IC50 (Homo sapiens, Epithelial cell, Plate No. 05; Riboflavin 499 nmol/L; medium b) phenol red-free RPMI 1640, flavin-protecting conditions, read-out: IC50 for docetaxel with reference to control with same riboflavin content): 206 pM | IC50 (Homo sapiens, Epithelial cell, Plate No. 05; Riboflavin 508 nmol/L; medium b) phenol red-free RPMI 1640, flavin-protecting conditions, read-out: IC50 for docetaxel with reference to control with same riboflavin content): 182 pM | IC50 (Homo sapiens, Epithelial cell, Plate No. 05; Riboflavin 594 nmol/L; medium b) phenol red-free RPMI 1640, flavin-protecting conditions, read-out: IC50 for docetaxel with reference to control with same riboflavin content): 196 pM | IC50 (Homo sapiens, Epithelial cell, Plate No. 05; Riboflavin 1449 nmol/L; medium b) phenol red-free RPMI 1640, flavin-protecting conditions, read-out: IC50 for docetaxel with reference to control with same riboflavin content): 197 pM | IC50 (Homo sapiens, Epithelial cell, Plate No. 05; Riboflavin 10000 nmol/L; medium b) phenol red-free RPMI 1640, flavin-protecting conditions, read-out: IC50 for docetaxel with reference to control with same riboflavin content): 238 pM | IC50 (Homo sapiens, Epithelial cell, Plate No. 09; Riboflavin 499 nmol/L; medium c) conventional RPMI 1640 with phenol red, flavin-protecting conditions, read-out: IC50 for docetaxel with reference to control with same riboflavin content): 233 pM | IC50 (Homo sapiens, Epithelial cell, Plate No. 09; Riboflavin 508 nmol/L; medium c) conventional RPMI 1640 with phenol red, flavin-protecting conditions, read-out: IC50 for docetaxel with reference to control with same riboflavin content): 189 pM | IC50 (Homo sapiens, Epithelial cell, Plate No. 09; Riboflavin 594 nmol/L; medium c) conventional RPMI 1640 with phenol red, flavin-protecting conditions, read-out: IC50 for docetaxel with reference to control with same riboflavin content): 201 pM | IC50 (Homo sapiens, Epithelial cell, Plate No. 09; Riboflavin 1449 nmol/L; medium c) conventional RPMI 1640 with phenol red, flavin-protecting conditions, read-out: IC50 for docetaxel with reference to control with same riboflavin content): 284 pM | IC50 (Homo sapiens, Epithelial cell, Plate No. 09; Riboflavin 10000 nmol/L; medium c) conventional RPMI 1640 with phenol red, flavin-protecting conditions, read-out: IC50 for docetaxel with reference to control with same riboflavin content): 394 pM | IC50 (Homo sapiens, Epithelial cell, medium a) (plate 01), 10 µmol/L riboflavin, flavin-protecting conditions, read-out: IC50 relating to medium control): 224 pM | IC50 (Homo sapiens, Epithelial cell, medium a) (plate 01), 10 µmol/L riboflavin, flavin-protecting conditions, read-out: IC50 with reference to individual control): 257 pM | IC50 (Homo sapiens, Epithelial cell, plates 01, 05, 09 handled completely under flavin-protecting conditions, three types of RPMI 1640, read-out: IC50 values for docetaxel): ~200 pM | IC50 as % of the IC50 at 20 nmol/L riboflavin, relating to medium control [1]: 107% | IC50 as % of the IC50 detected in a) at 20 nmol/L riboflavin, individual control [1]: 128%
Structure (SMILES): CC(=O)O[C@@]12CO[C@@H]1C[C@H](O)[C@@]1(C)C(=O)[C@H](O)C3=C(C)[C@@H](OC(=O)[C@H](O)[C@@H](NC(=O)OC(C)(C)C)c4ccccc4)C[C@@](O)([C@@H](OC(=O)c4ccccc4)[C@H]21)C3(C)C [docetaxel]
IC50 (Homo sapiens, Epithelial cell, 0.5 h, Plate No. 11; Riboflavin 499 nmol/L; medium c), bench lighting <30 min, read-out: IC50 for docetaxel normalized to medium control of medium with same riboflavin content): 100 pM | IC50 (Homo sapiens, Epithelial cell, 0.5 h, Plate No. 11; Riboflavin 508 nmol/L; medium c), bench lighting <30 min, read-out: IC50 for docetaxel normalized to medium control of medium with same riboflavin content): 126 pM | IC50 (Homo sapiens, Epithelial cell, 0.5 h, Plate No. 11; Riboflavin 594 nmol/L; medium c), bench lighting <30 min, read-out: IC50 for docetaxel normalized to medium control of medium with same riboflavin content): 103 pM | IC50 (Homo sapiens, Epithelial cell, 0.5 h, Plate No. 11; Riboflavin 1449 nmol/L; medium c), bench lighting <30 min, read-out: IC50 for docetaxel normalized to medium control of medium with same riboflavin content): 122 pM | IC50 (Homo sapiens, Epithelial cell, 0.5 h, Plate No. 11; Riboflavin 10000 nmol/L; medium c), bench lighting <30 min, read-out: IC50 for docetaxel normalized to medium control of medium with same riboflavin content): 110 pM | IC50 (Homo sapiens, Epithelial cell, 0.5 h, Plate No. 12; Riboflavin 499 nmol/L; medium c), bench lighting <30 min, daylight 30 min, read-out: IC50 for docetaxel normalized to medium control of medium with same riboflavin content): 100 pM | IC50 (Homo sapiens, Epithelial cell, 0.5 h, Plate No. 12; Riboflavin 508 nmol/L; medium c), bench lighting <30 min, daylight 30 min, read-out: IC50 for docetaxel normalized to medium control of medium with same riboflavin content): 70.5 pM | IC50 (Homo sapiens, Epithelial cell, 0.5 h, Plate No. 12; Riboflavin 594 nmol/L; medium c), bench lighting <30 min, daylight 30 min, read-out: IC50 for docetaxel normalized to medium control of medium with same riboflavin content): 59.1 pM | IC50 (Homo sapiens, Epithelial cell, 0.5 h, Plate No. 12; Riboflavin 1449 nmol/L; medium c), bench lighting <30 min, daylight 30 min, read-out: IC50 for docetaxel normalized to medium control of medium with same riboflavin content): 45 pM | IC50 (Homo sapiens, Epithelial cell, Plate No. 01; Riboflavin 20 nmol/L; medium a), flavin-protecting conditions, read-out: IC50 for docetaxel normalized to medium control of medium with same riboflavin content): 100 pM | IC50 (Homo sapiens, Epithelial cell, Plate No. 01; Riboflavin 30 nmol/L; medium a), flavin-protecting conditions, read-out: IC50 for docetaxel normalized to medium control of medium with same riboflavin content): 98.6 pM | IC50 (Homo sapiens, Epithelial cell, Plate No. 01; Riboflavin 120 nmol/L; medium a), flavin-protecting conditions, read-out: IC50 for docetaxel normalized to medium control of medium with same riboflavin content): 110 pM | IC50 (Homo sapiens, Epithelial cell, Plate No. 01; Riboflavin 1018 nmol/L; medium a), flavin-protecting conditions, read-out: IC50 for docetaxel normalized to medium control of medium with same riboflavin content): 106 pM | IC50 (Homo sapiens, Epithelial cell, Plate No. 01; Riboflavin 10000 nmol/L; medium a), flavin-protecting conditions, read-out: IC50 for docetaxel normalized to medium control of medium with same riboflavin content): 123 pM | IC50 (Homo sapiens, Epithelial cell, Plate No. 05; Riboflavin 499 nmol/L; medium b), flavin-protecting conditions, read-out: IC50 for docetaxel normalized to medium control of medium with same riboflavin content): 100 pM | IC50 (Homo sapiens, Epithelial cell, Plate No. 05; Riboflavin 508 nmol/L; medium b), flavin-protecting conditions, read-out: IC50 for docetaxel normalized to medium control of medium with same riboflavin content): 88 pM | IC50 (Homo sapiens, Epithelial cell, Plate No. 05; Riboflavin 594 nmol/L; medium b), flavin-protecting conditions, read-out: IC50 for docetaxel normalized to medium control of medium with same riboflavin content): 94.9 pM | IC50 (Homo sapiens, Epithelial cell, Plate No. 05; Riboflavin 1449 nmol/L; medium b), flavin-protecting conditions, read-out: IC50 for docetaxel normalized to medium control of medium with same riboflavin content): 95.4 pM | IC50 (Homo sapiens, Epithelial cell, Plate No. 05; Riboflavin 10000 nmol/L; medium b), flavin-protecting conditions, read-out: IC50 for docetaxel normalized to medium control of medium with same riboflavin content): 115 pM | IC50 (Homo sapiens, Epithelial cell, Plate No. 09; Riboflavin 499 nmol/L; medium c), flavin-protecting conditions, read-out: IC50 for docetaxel normalized to medium control of medium with same riboflavin content): 100 pM | IC50 (Homo sapiens, Epithelial cell, Plate No. 09; Riboflavin 508 nmol/L; medium c), flavin-protecting conditions, read-out: IC50 for docetaxel normalized to medium control of medium with same riboflavin content): 81.3 pM | IC50 (Homo sapiens, Epithelial cell, Plate No. 09; Riboflavin 594 nmol/L; medium c), flavin-protecting conditions, read-out: IC50 for docetaxel normalized to medium control of medium with same riboflavin content): 86.5 pM | IC50 (Homo sapiens, Epithelial cell, Plate No. 09; Riboflavin 1449 nmol/L; medium c), flavin-protecting conditions, read-out: IC50 for docetaxel normalized to medium control of medium with same riboflavin content): 122 pM | IC50 (Homo sapiens, Epithelial cell, Plate No. 09; Riboflavin 10000 nmol/L; medium c), flavin-protecting conditions, read-out: IC50 for docetaxel normalized to medium control of medium with same riboflavin content): 169 pM
